Experiments:
tubulin = experiment: Inhibition of tubulin assembly
[1] = tested on: A549 human lung cancer cell line; experiment: Cytotoxic activity against A549 lung cancer cell line

SMILES	Activity as tubulin polymerization/assembly inhibitor (in words) (tubulin)	Cytotoxic activity against A549 cell line (in words) [1]
COC(=O)Nc1nc2ccc(C(=O)c3ccc(O)cc3O)cc2[nH]1 [Compound 3]	inactive	no activity
COC(=O)Nc1nc2ccc(/C=C\c3cc(OC)c(OC)c(OC)c3)cc2[nH]1 [Compound 1]	excellent activities	
COC(=O)Nc1nc2ccc(C(=O)c3ccc(OC)cc3O)cc2[nH]1 [Compound 2]	excellent activities	no activity
COC(=O)Nc1nc2ccc(C(=O)c3sccc3O)cc2[nH]1 [Compound 4]	excellent activities	

Source: PMC4416488 (Bioorganic & medicinal chemistry letters, 2015)
